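Compound exposure: 48 hours, 5 concentrations, 96-well plates. GI50: concentration for 50% inhibition of growth. TGI denotes the concentration required for complete inhibition of growth.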
Key:
Experiment in all cases: inhibition of tumour cell growth, NCI panel, 48 h
OVCAR-3 ovarian = test system: OVCAR-3 ovarian
MDA-N = test system: MDA-N
IGROV1 ovarian = test system: IGROV1 ovarian
HL-60(TB) leukemia = test system: HL-60(TB) leukemia
BT-549 breast = test system: BT-549 breast
TK-10 renal = test system: TK-10 renal
RPMI-8226 leukemia = test system: RPMI-8226 leukemia
COLO 205 colon = test system: COLO 205 colon
SNB-75 CNS = test system: SNB-75 CNS
MCF7 breast = test system: MCF7 breast

Structure (SMILES)	TGI (OVCAR-3 ovarian) [µM]	TGI (MDA-N) [µM]	TGI (IGROV1 ovarian) [µM]	TGI (HL-60(TB) leukemia) [µM]	TGI (BT-549 breast) [µM]	TGI (TK-10 renal) [µM]	TGI (RPMI-8226 leukemia) [µM]	TGI (COLO 205 colon) [µM]	TGI (SNB-75 CNS) [µM]	TGI (MCF7 breast) [µM]	GI50 (OVCAR-3 ovarian) [µM]	GI50 (IGROV1 ovarian) [µM]	GI50 (HL-60(TB) leukemia) [µM]	GI50 (BT-549 breast) [µM]	GI50 (TK-10 renal) [µM]	GI50 (RPMI-8226 leukemia) [µM]	GI50 (COLO 205 colon) [µM]	GI50 (SNB-75 CNS) [µM]	GI50 (MCF7 breast) [µM]
O=C(NN1CCCCC1)c1cc2cc(CCl)ccc2oc1=O	39.3	33.4	42.7	37.7	38	35.5	59	36	34.9	> 100	–	–	–	–	–	–	–	–	–
CN(C)c1ccc(/C=C2\C[C@H]3[C@@H]4CC=C5C[C@@H](O)CC[C@]5(C)[C@H]4CC[C@]3(C)[C@H]2O)cc1	59.8	56.9	35.3	> 100	43.3	33.7	> 100	23	> 100	34.4	–	–	–	–	–	–	–	–	–
Cc1ccc([N+](=O)[O-])cc1S(=O)(=O)Nc1ccc(C2=NN(C(=O)c3ccccc3)C(c3ccccc3O)C2)cc1 (centres undefined)	56.8	88.1	25.4	69.4	30.7	28.5	> 100	31.9	41.4	26.7	–	–	–	–	–	–	–	–	–
C/C=C/C(O)P(=O)(OC)OC (centres undefined)	0.783	0.671	1.01	0.591	1.8	1.45	0.514	0.366	1.49	1.01	–	–	–	–	–	–	–	–	–
Clc1cccc(/C=c2\nc(-c3ccccc3)n3c2nc2ccccc23)c1	> 100	> 100	> 100	> 100	> 100	> 100	> 100	> 100	81.2	> 100	–	–	–	–	–	–	–	–	–
COc1cc2cc[n+](C)c(Cc3ccc(Oc4cc(Cc5c6cc(OC)c(OC)cc6cc[n+]5C)ccc4OC)cc3)c2cc1OC	> 100	> 100	> 100	> 100	> 100	> 100	> 100	> 100	> 100	> 100	–	–	–	–	–	–	–	–	–
Nc1ccc(Cc2ccc(N)c(C(=O)O)c2)cc1C(=O)O	> 100	> 100	> 100	> 100	> 100	> 100	> 100	> 100	> 100	> 100	–	–	–	–	–	–	–	–	–
C=C(CN(C)C)C(=O)c1ccccc1Cl	34.9	–	> 70.8	29.6	–	39.2	82.3	29.3	> 80.7	–	–	–	–	–	–	–	–	–	–
O=S(C(c1ccccc1)=P(c1ccccc1)(c1ccccc1)c1ccccc1)c1ccc(Cl)cc1 (centres undefined)	> 100	78.6	> 100	45	–	> 100	> 100	–	> 100	> 100	–	–	–	–	–	–	–	–	–
COc1ccc(-n2nc(C(=O)c3ccccc3)c3nn4c(=O)cc(-c5ccccc5)nc4nc32)cc1	> 100	–	> 100	> 100	> 100	> 100	> 100	> 100	> 100	> 100	30.7	25.9	29.6	55.1	40.3	40	29.1	37.9	30.7
CN(CCCNC(=O)c1nn(-c2ccccc2)c2c1Cc1ccccc1-2)CCCNC(=O)c1nn(-c2ccccc2)c2c1Cc1ccccc1-2	3.13	2.66	3.07	2.5	3.21	3.22	4.22	2.8	–	2.99	–	–	–	–	–	–	–	–	–
CN(CCc1ccccn1)c1ccc2c(c1)Cc1ccccc1-2	> 100	–	88.1	59.3	46.8	> 100	84.7	41.4	45.2	> 100	–	–	–	–	–	–	–	–	–
O=C1CNc2cc(N3CCCCC3)ccc2N1	> 100	> 100	29.7	> 100	> 100	> 100	> 100	–	> 100	> 100	–	–	–	–	–	–	–	–	–
Cc1c2ccccc2cc2cccc[n+]12	> 100	> 100	> 100	> 100	> 100	> 100	> 100	> 100	83.7	> 100	–	–	–	–	–	–	–	–	–
CC(CCCCNC(=O)OC(C)(C)C)NC(=O)NC(C)CCCCNC(=O)OC(C)(C)C (centres undefined)	> 100	> 100	> 100	> 100	> 100	> 100	–	> 100	> 100	> 100	–	–	–	–	–	–	–	–	–
CS(=O)(=O)Nc1ccc(NCc2cnc3ccc4[nH]cccc4c23)cc1	92.9	37.5	> 100	52.6	73.2	94.8	31	36.2	61.3	94.9	–	–	–	–	–	–	–	–	–
